This note sets out measurements from ChEMBL document CHEMBL3608295, “Antimicrobial activity of doubly-stapled alanine/lysine-based peptides” (Bioorg Med Chem Lett, 2015).

≈ marks a conversion by molar mass, not a printed value. Starred links: 1 amine or outer side, 2 acyl side, 3 side chain; linkers in the order of their positions; H or OH if unused. Positions of bridges follow the written chain, without caps; N, C: chain ends. Non-standard residues stand in square brackets, D forms with d. Residues, ends and D or L forms follow the SMILES beside them. R5 = C=CCCC[C@@](C)(N)C(=O)O; Suc = O=C(CCC(=O)[*:2])[*:1]

One series concerns Bacillus spizizenii. Nature of the series: Antimicrobial activity against Bacillus subtilis ATCC 6633 after 24 hrs by broth microdilution method. The class given is functional. Conditions: ATCC 6633, 24 h.
The test system of another series is Staphylococcus aureus. Nature of the series: Antimicrobial activity against Staphylococcus aureus ATCC 6538p after 24 hrs by broth microdilution method. The series is classed as functional.
Series [1] concerns Staphylococcus epidermidis. Nature of the series: Antimicrobial activity against Staphylococcus epidermidis ATCC 12228 after 24 hrs by broth microdilution method. Conditions: ATCC 12228, 24 h. The series is classed as functional.
For the next series, the system named is Escherichia coli. Nature of the series: Antimicrobial activity against Escherichia coli ATCC 25922 after 24 hrs by broth microdilution method. The class given is functional. The note with it: ATCC 25922, 24 h. A general note: Dilution methods test growth across graded concentrations, often in twofold steps.
The test system of another series is Shigella dysenteriae. Kind of series: Antimicrobial activity against Shigella dysenteriae ATCC 9752 after 24 hrs by broth microdilution method. The series is classed as functional. Conditions: ATCC 9752, 24 h.
A further series relates to Salmonella typhimurium. Kind of series: Antimicrobial activity against Salmonella typhimurium ATCC 14028 after 24 hrs by broth microdilution method. The series is classed as functional, Salmonella enterica subsp. enterica serovar Typhimurium. Conditions: Salmonella enterica, ATCC 14028, 24 h.
Another series concerns Klebsiella pneumoniae. Kind of series: Antimicrobial activity against Klebsiella pneumoniae ATCC 10031 after 24 hrs by broth microdilution method. The class given is functional. The note with it: ATCC 10031, 24 h.
Another series deals with Pseudomonas aeruginosa. Kind of series: Antimicrobial activity against Pseudomonas aeruginosa ATCC 27853 after 24 hrs by broth microdilution method. The class given is functional. Conditions: ATCC 27853, 24 h.
A short description of series [2]: Hemolytic activity in human RBC at 25 uM after 30 mins relative to control. The series is classed as ADME, cell-based, Erythrocyte. Conditions: human red blood cells (RBC), read-out: Activity.
Series [3] is described as follows: Hemolytic activity in human RBC at 12.5 uM after 30 mins relative to control. The series is classed as ADME, cell-based, Erythrocyte. The note with it: human red blood cells (RBC), read-out: Activity.
For series [4], the system named is trypsin. Nature of the series: (§1) Stability of the compound assessed as trypsin (unknown origin)-mediated compound degradation at substrate/enzyme ratio of 1600/1 at 25 degC after 10 mins by HPLC analysis. The series is classed as ADME. The note with it: human, trypsin (unknown origin); read-out: Drug degradation.
The test system of series [5] is trypsin. Nature of the series: Stability of the compound assessed as trypsin (unknown origin)-mediated compound degradation by measuring compound remaining at substrate/enzyme ratio of 1600/1 at 25 degC after 60 mins by HPLC analysis. The series is classed as ADME. The note with it: human, read-out: Stability.
Series [6] in a line: as §1. The series is classed as ADME. The note with it: human, 10 min.

As usually defined, the MIC is the lowest concentration that inhibits growth of the organism. The low end stands for a more susceptible organism, the high end for a less susceptible organism. For `CC(=O)N[C@@H](CCCCN)C(=O)N[C@]1(C)CCC/C=C\CCC[C@](C)(C(=O)N[C@@H](CCCCN)C(=O)N[C@@H](CCCCN)C(=O)N[C@]2(C)CCC/C=C\CCC[C@](C)(C(=O)N[C@@H](C)C(=O)N[C@@H](CCCCN)C(N)=O)NC(=O)[C@H](Cc3c[nH]c4ccccc34)NC(=O)[C@H](CCCCN)NC(=O)[C@H](C)NC2=O)NC(=O)[C@H](C)NC(=O)[C@H](CCCCN)NC(=O)[C@H](C)NC1=O` (Ac-K[R5]AKA[R5]KK[R5]AKW[R5]AK-NH2; staple (Z) 2-6, 9-13), the MIC with Bacillus spizizenii was found to be 1.6 µg/mL (≈ 0.889 µM); in the series on Staphylococcus aureus it was 3.1 µg/mL (≈ 1.72 µM); in [1], 4.8 µg/mL (≈ 2.67 µM); against Escherichia coli it was 50 µg/mL (≈ 27.8 µM); against Shigella dysenteriae it was 50 µg/mL (≈ 27.8 µM); against Salmonella typhimurium it was 200 µg/mL (≈ 111 µM). Further, the MIC in the series with Klebsiella pneumoniae and in the series with Pseudomonas aeruginosa was 100 µg/mL (≈ 55.6 µM) each time. The hemolysis at 0.5 h, 25 µM in series [2] is 42.5%. Further, the hemolysis at 0.5 h, 12.5 µM in series [3] was 25.3%.

As for `CC(=O)N[C@@H](CCCCN)C(=O)N[C@]1(C)CCC/C=C\CCC[C@](C)(C(=O)N[C@@H](CCCCN)C(=O)N[C@@H](CCCCN)C(=O)N[C@@H](C)C(=O)N[C@@H](C)C(=O)N[C@@H](CCCCN)C(=O)N[C@@H](C)C(=O)N[C@@H](C)C(=O)N[C@@H](Cc2c[nH]c3ccccc23)C(=O)N[C@@H](CCCCN)C(N)=O)NC(=O)[C@H](C)NC(=O)[C@H](CCCCN)NC(=O)[C@H](C)NC1=O` (Ac-K[R5]AKA[R5]KKAAKAAWK-NH2; staple (Z) 2-6), the MIC in the series on Bacillus spizizenii is 25 µg/mL (≈ 14.8 µM); with Staphylococcus aureus it was 9.4 µg/mL (≈ 5.56 µM); in series [1], 75 µg/mL (≈ 44.3 µM); in the series on Escherichia coli, 3.1 µg/mL (≈ 1.83 µM); in the series with Shigella dysenteriae it was 18.8 µg/mL (≈ 11.1 µM); against Salmonella typhimurium, greater than 200 µg/mL. Besides, the MIC in the series on Klebsiella pneumoniae worked out at 18.8 µg/mL (≈ 11.1 µM); with Pseudomonas aeruginosa, 100 µg/mL (≈ 59.1 µM). Also, the hemolysis at 0.5 h, 25 µM in [2] was less than 1%. Besides, in series [3], the hemolysis at 0.5 h, 12.5 µM is less than 1%. In addition, in the series with trypsin [4], the metabolised at 10 min worked out at 73%.

Regarding `C[C@@H]1NC(=O)[C@H](CCCCN)NC(=O)[C@H](C)NC(=O)[C@](C)(NC(=O)[C@H](CCCCN)NC(=O)[C@H](CCCCN)NC(=O)[C@@]2(C)CCC/C=C\CCC[C@@](C)(NC(=O)[C@@H](N)CCCCN)C(=O)N[C@@H](C)C(=O)N[C@@H](CCCCN)C(=O)N[C@@H](Cc3c[nH]c4ccccc34)C(=O)N2)CCC/C=C\CCC[C@](C)(C(=O)N[C@@H](C)C(=O)N[C@@H](CCCCN)C(N)=O)NC1=O` (H-K[R5]AKW[R5]KK[R5]AKA[R5]AK-NH2; staple (Z) 2-6, 9-13), the MIC in the series on Bacillus spizizenii amounted to 1.6 µg/mL (≈ 0.91 µM); against Staphylococcus aureus it was 1.6 µg/mL (≈ 0.91 µM); in [1], 1.6 µg/mL (≈ 0.91 µM); with Escherichia coli, 3.1 µg/mL (≈ 1.76 µM); in the series with Shigella dysenteriae, 12.5 µg/mL (≈ 7.11 µM); in the series on Salmonella typhimurium, 6.3 µg/mL (≈ 3.59 µM). Moreover, the values for the MIC against Klebsiella pneumoniae and in the series on Pseudomonas aeruginosa were 12.5 µg/mL (≈ 7.11 µM) and 6.3 µg/mL (≈ 3.59 µM), respectively. Moreover, the hemolysis at 0.5 h, 25 µM in [2] came out at 25.5%. For the same compound, the hemolysis at 0.5 h, 12.5 µM in series [3] stood at 13.5%.

As for `C[C@@H]1NC(=O)[C@H](CCCCN)NC(=O)[C@H](C)NC(=O)[C@](C)(NC(=O)[C@H](CCCCN)NC(=O)[C@H](CCCCN)NC(=O)[C@@]2(C)CCC/C=C\CCC[C@@](C)(NC(=O)[C@H](CCCCN)NC(=O)CCC(=O)O)C(=O)N[C@@H](C)C(=O)N[C@@H](CCCCN)C(=O)N[C@@H](Cc3c[nH]c4ccccc34)C(=O)N2)CCC/C=C\CCC[C@](C)(C(=O)N[C@@H](C)C(=O)N[C@@H](CCCCN)C(N)=O)NC1=O` (Suc-K[R5]AKW[R5]KK[R5]AKA[R5]AK-NH2; staple (Z) 2-6, 9-13), the MIC was 1.6 µg/mL (≈ 0.861 µM) against Bacillus spizizenii; 1.6 µg/mL (≈ 0.861 µM) in the series with Staphylococcus aureus; 1.6 µg/mL (≈ 0.861 µM) in series [1]; 12.5 µg/mL (≈ 6.73 µM) with Escherichia coli; 50 µg/mL (≈ 26.9 µM) with Shigella dysenteriae; greater than 200 µg/mL against Salmonella typhimurium. The MIC was found to be 25 µg/mL (≈ 13.5 µM) in the series with Klebsiella pneumoniae and 50 µg/mL (≈ 26.9 µM) with Pseudomonas aeruginosa. For the same compound, in [2], the hemolysis at 0.5 h, 25 µM was found to be 32.6%. In addition, the hemolysis at 0.5 h, 12.5 µM in series [3] came to 19.5%.

Consider `CC(=O)N[C@@H](CCCCN)C(=O)N[C@]1(C)CCC/C=C\CCC[C@](C)(C(=O)N[C@@H](CCCCN)C(=O)N[C@@H](CCCCN)C(=O)N[C@]2(C)CCC/C=C\CCC[C@](C)(C(=O)N[C@@H](Cc3c[nH]c4ccccc34)C(=O)N[C@@H](CCCCN)C(N)=O)NC(=O)[C@H](C)NC(=O)[C@H](CCCCN)NC(=O)[C@H](C)NC2=O)NC(=O)[C@H](C)NC(=O)[C@H](CCCCN)NC(=O)[C@H](C)NC1=O` (Ac-K[R5]AKA[R5]KK[R5]AKA[R5]WK-NH2; staple (Z) 2-6, 9-13), for which the MIC in the series on Bacillus spizizenii was determined as 1.6 µg/mL (≈ 0.889 µM); in the series on Staphylococcus aureus it was 4.8 µg/mL (≈ 2.67 µM); in [1], 3.1 µg/mL (≈ 1.72 µM); against Escherichia coli, 25 µg/mL (≈ 13.9 µM); in the series on Shigella dysenteriae it was 25 µg/mL (≈ 13.9 µM); in the series with Salmonella typhimurium, 100 µg/mL (≈ 55.6 µM). Besides, the MIC with Klebsiella pneumoniae came to 200 µg/mL (≈ 111 µM); against Pseudomonas aeruginosa, 100 µg/mL (≈ 55.6 µM). The hemolysis at 0.5 h, 25 µM in series [2] turned out to be 38.8%. Further, the hemolysis at 0.5 h, 12.5 µM in series [3] is 22.1%. Further, the remaining at 1 h with trypsin [5] was greater than 85%.

As to Ac-KAAKAAKKAAKAAWK-NH2, the MIC (against Bacillus spizizenii; against Staphylococcus aureus; in series [1]; in the series on Escherichia coli; against Shigella dysenteriae; against Salmonella typhimurium) was greater than 200 µg/mL throughout. Moreover, the MIC against Klebsiella pneumoniae and in the series on Pseudomonas aeruginosa was greater than 200 µg/mL in each case. Further, the hemolysis at 0.5 h, 25 µM in series [2] was less than 1%. Also, in series [3], the hemolysis at 0.5 h, 12.5 µM is less than 1%. Moreover, the Stability entry in [6] is on record as “Unstable”.

As for `CC(=O)N[C@@H](CCCCN)C(=O)N[C@]1(C)CCC/C=C\CCC[C@](C)(C(=O)N[C@@H](CCCCN)C(=O)N[C@@H](CCCCN)C(=O)N[C@]2(C)CCC/C=C\CCC[C@](C)(C(=O)N[C@@H](C)C(=O)N[C@@H](CCCCN)C(N)=O)NC(=O)[C@H](C)NC(=O)[C@H](CCCCN)NC(=O)[C@H](C)NC2=O)NC(=O)[C@H](C)NC(=O)[C@H](CCCCN)NC(=O)[C@H](Cc2c[nH]c3ccccc23)NC1=O` (Ac-K[R5]WKA[R5]KK[R5]AKA[R5]AK-NH2; staple (Z) 2-6, 9-13), the MIC in the series with Bacillus spizizenii amounted to 3.1 µg/mL (≈ 1.72 µM); in the series on Staphylococcus aureus it was 4.8 µg/mL (≈ 2.67 µM); in series [1], 4.8 µg/mL (≈ 2.67 µM); in the series on Escherichia coli, 25 µg/mL (≈ 13.9 µM); in the series on Shigella dysenteriae, 50 µg/mL (≈ 27.8 µM); against Salmonella typhimurium, 100 µg/mL (≈ 55.6 µM). For the same compound, the MIC in the series on Klebsiella pneumoniae was 100 µg/mL (≈ 55.6 µM); against Pseudomonas aeruginosa it was 200 µg/mL (≈ 111 µM). Also, the hemolysis at 0.5 h, 25 µM in [2] came to 42.5%. For the same compound, the hemolysis at 0.5 h, 12.5 µM in series [3] came out at 28.9%.

As for `CC(=O)N[C@@H](CCCCN)C(=O)N[C@]1(C)CCC/C=C\CCC[C@](C)(C(=O)N[C@@H](CCCCN)C(=O)N[C@@H](CCCCN)C(=O)N[C@]2(C)CCC/C=C\CCC[C@](C)(C(=O)N[C@@H](C)C(=O)N[C@@H](CCCCN)C(N)=O)NC(=O)[C@H](C)NC(=O)[C@H](CCCCN)NC(=O)[C@H](C)NC2=O)NC(=O)[C@H](Cc2c[nH]c3ccccc23)NC(=O)[C@H](CCCCN)NC(=O)[C@H](C)NC1=O` (Ac-K[R5]AKW[R5]KK[R5]AKA[R5]AK-NH2; staple (Z) 2-6, 9-13), the MIC came to 1.6 µg/mL (≈ 0.889 µM) in the series on Bacillus spizizenii; 1.6 µg/mL (≈ 0.889 µM) in the series on Staphylococcus aureus; 1.6 µg/mL (≈ 0.889 µM) in series [1]; 18.8 µg/mL (≈ 10.4 µM) against Escherichia coli; 25 µg/mL (≈ 13.9 µM) in the series on Shigella dysenteriae; 37.5 µg/mL (≈ 20.8 µM) against Salmonella typhimurium. The MIC with Klebsiella pneumoniae turned out to be 37.5 µg/mL (≈ 20.8 µM); in the series with Pseudomonas aeruginosa, 25 µg/mL (≈ 13.9 µM). For the same compound, the hemolysis at 0.5 h, 25 µM in [2] turned out to be 38.5%. Also, the hemolysis at 0.5 h, 12.5 µM in series [3] came to 22%.
